The record followed here is US20220267298A1 (priority 2019, published 2022).

The term IC50 denotes the concentration at which inhibition is half-maximal. High values mean weaker potency in that assay, low ones greater potency in that assay.

For the test, the target named is T1, GRK2 (Homo sapiens, UniProt P25098).
T1 sequence (P25098 1-689): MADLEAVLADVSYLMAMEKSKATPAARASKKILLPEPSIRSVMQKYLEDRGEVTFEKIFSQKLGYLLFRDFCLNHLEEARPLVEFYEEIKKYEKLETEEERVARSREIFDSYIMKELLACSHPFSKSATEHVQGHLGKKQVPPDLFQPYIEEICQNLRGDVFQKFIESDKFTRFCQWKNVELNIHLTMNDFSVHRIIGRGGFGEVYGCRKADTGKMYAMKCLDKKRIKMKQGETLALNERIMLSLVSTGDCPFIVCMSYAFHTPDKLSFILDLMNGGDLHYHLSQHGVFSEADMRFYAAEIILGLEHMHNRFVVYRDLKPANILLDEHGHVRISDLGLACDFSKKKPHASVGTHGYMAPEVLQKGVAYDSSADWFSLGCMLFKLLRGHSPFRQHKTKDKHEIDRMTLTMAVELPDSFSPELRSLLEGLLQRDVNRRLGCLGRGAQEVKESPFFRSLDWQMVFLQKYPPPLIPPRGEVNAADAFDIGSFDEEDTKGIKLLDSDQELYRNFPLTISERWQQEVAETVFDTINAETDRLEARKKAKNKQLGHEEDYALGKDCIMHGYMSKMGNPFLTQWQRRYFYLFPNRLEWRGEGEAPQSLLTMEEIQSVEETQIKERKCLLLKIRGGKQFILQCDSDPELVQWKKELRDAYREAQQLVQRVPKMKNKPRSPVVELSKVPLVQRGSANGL
In words: biochemical. To be noted: GRK2 IC50 (μM), 10 nM GRK2; 10 uM ATP.
Method: Positive and negative control wells received an equal volume of DMSO. The final DMSO concentration in the assay is 1%.
The plate was placed in centrifuge equipped with a spin-bucket rotor and spun for 1 min at 1000 rpm.
GRK2 enzymatic reactions were initiated with the addition of 2 μL/well of 50 nM GRK2 in assay buffer. Plates were centrifuged for 1 min at 1000 rpm. For negative control wells, the order of reagent addition was reversed: 10 μL/well ADP detection mix (see below) was added first, followed by the addition of 2 μL/well of the GRK2 solution. Reaction mixtures were incubated at ambient temperature for 2 hours.
Following incubation, the reactions were quenched with 10 μL/well of the Transcreener ADP detection mix. […] The plates were then centrifuged for 1 min at 1000 rpm.
Fluorescence polarization values of the reaction mixtures were read on a Safire II plate reader after a 60 min incubation at ambient temperature. Excitation wavelength=590 nm; emission wavelength=650 nm.
The fluorescence polarization data were converted to % activity as follows:
% activity=(sample−NC)/(PC−NC)*100
where NC is the mean of negative control (ADP detection mix added prior to GRK2 addition), and PC is the mean of positive control (GRK2 reaction without inhibitor). IC50 values are determined from a 4-parameter fit, using the following equation:
Y=Bottom+(Top−Bottom)/(1+10^((Log IC50-X)*Hill slope)),
where X=log10 of the compound concentration.
In the case of `COc1cccc(C(C)n2cnc3ccc(-c4c[nH]nc4N)cc3c2=O)c1` (stereo not shown) [Compound 19, 6-(3-Amino-1H-pyrazol-4-yl)-3-[1-(3-methoxyphenyl)ethyl]quinazolin-4-one], the half-inhibitory concentration (IC50) was > 50 µM.

Regarding `O=c1c2cc(-c3cn[nH]c3)ccc2ncn1Cc1cccc(OC(F)(F)F)c1` [Compound 66, 6-(1H-Pyrazol-4-yl)-3-[[3-(trifluoromethoxy)phenyl]methyl]quinazolin-4-one], it took 22.2 µM to reach half-maximal inhibition (IC50).

In the case of `O=c1c2cc(-c3cn[nH]c3)ccc2ncn1Cc1c(F)cccc1F` [Compound 78, 3-[(2,6-Difluorophenyl)methyl]-6-(1H-pyrazol-4-yl)quinazolin-4-one], the IC50 was found to be 0.801 µM.

`COc1cccc(Cn2cnc3ccc(-n4cn[nH]c4=O)cc3c2=O)c1` [Compound 38, 3-[(3-Methoxyphenyl)methyl]-6-(5-oxo-1H-1,2,4-triazol-4-yl)quinazolin-4-one] registered an IC50 of 0.129 µM.

`CCOc1cccc(C(CS(C)(=O)=O)n2cnc3ccc(-c4cn[nH]c4)cc3c2=O)c1` (stereo not shown) [Compound 15, 3-(1-(3-Ethoxyphenyl)-2-(methylsulfonyl)ethyl)-6-(1H-pyrazol-4-yl)quinazolin-4(3H)-one] showed an IC50 of 5.59 µM.

As to `O=C(NCc1ccc(F)cc1)c1cccc(-n2cnc3ccc(-c4cn[nH]c4)cc3c2=O)c1` [Compound C1, N-[(4-Fluorophenyl)methyl]-3-[4-oxo-6-(1H-pyrazol-4-yl)quinazolin-3-yl]benzamide], the IC50 was 1.63 µM.

In turn, `COc1cc(Cn2cnc3ccc(-c4ccnc5[nH]ccc45)cc3c2=O)ccc1F` [Compound 54, 3-[(4-Fluoro-3-methoxy-phenyl)methyl]-6-(1H-pyrrolo[2,3-b]pyridin-4-yl)quinazolin-4-one] returned a 50% inhibitory concentration (IC50) of 12.3 µM.

`COc1cccc(Cn2cnc3ccc(-c4cnc(N)nc4)cc3c2=O)c1` [Compound 52, 6-(2-Aminopyrimidin-5-yl)-3-(3-methoxybenzyl)quinazolin-4(3H)-one]: the half-maximal inhibitory concentration (IC50) was > 19 µM.

The compound `COc1cccc(Cn2cnc3ccc(-c4c[nH]nc4C)cc3c2=O)c1` [Compound 37, 3-[(3-Methoxyphenyl)methyl]-6-(3-methyl-1H-pyrazol-4-yl)quinazolin-4-one] returned an IC50 of 0.066 µM.

On to `COc1cccc(C(C2CCS(=O)(=O)CC2)n2cnc3ccc(-c4cn[nH]c4)cc3c2=O)c1` (stereo not shown) [Compound 22, 3-((1,1-Dioxidotetrahydro-2H-thiopyran-4-yl)(3-methoxyphenyl)methyl)-6-(1H-pyrazol-4-yl)quinazolin-4(3H)-one], for which the IC50 is 4.11 µM. Against the preceding compound, the IC50 is about 62-fold higher.

Compound `O=c1c2cc(-c3cn[nH]c3)ccc2ncn1Cc1cccc(-c2ncco2)c1` [Compound 28, 3-(3-(Oxazol-2-yl)benzyl)-6-(1H-pyrazol-4-yl)quinazolin-4(3H)-one] came in with an IC50 of 0.446 µM.

As to `COc1cccc(C(CCN(C)C)n2cnc3ccc(-c4cn[nH]c4)cc3c2=O)c1` (stereo not shown) [Compound 29, 3-(3-(Dimethylamino)-1-(3-methoxyphenyl)propyl)-6-(1H-pyrazol-4-yl)quinazolin-4(3H)-one], the midpoint of inhibition, the IC50, lay at 0.054 µM.

`COc1cccc(Cn2cnc3ccc(-c4cn[nH]c(=O)c4)cc3c2=O)c1` [Compound 46, 3-[(3-Methoxyphenyl)methyl]-6-(6-oxo-1H-pyridazin-4-yl)quinazolin-4-one] showed a concentration for half-maximal inhibition (IC50) of 1.46 µM.

Take `O=c1c2cc(-c3ccc(F)nc3)ccc2ncn1Cc1ccccc1` [Compound 82, 3-Benzyl-6-(6-fluoro-3-pyridyl)quinazolin-4-one]: the half-maximal inhibitory concentration (IC50) is > 100 µM.

With `COc1cccc(Cn2cnc3ccc(-c4ccnc(N)n4)cc3c2=O)c1` [Compound 45, 6-(2-Aminopyrimidin-4-yl)-3-[(3-methoxyphenyl)methyl]quinazolin-4-one], the concentration for half-maximal inhibition (IC50) was 0.271 µM.

`NC1CCN(c2nc3ccc(-c4cn[nH]c4)cc3c(=O)n2Cc2cccc(C(=O)NCc3ccc(F)cc3)c2)C1` (stereo not shown) [Compound 55, 3-[[2-(3-Aminopyrrolidin-1-yl)-4-oxo-6-(1H-pyrazol-4-yl)quinazolin-3-yl]methyl]-N-[(4-fluorophenyl)methyl]benzamide] returned a concentration for half-maximal inhibition (IC50) of 0.014 µM.

The compound `NS(=O)(=O)c1cccc(Cn2cnc3ccc(-c4cn[nH]c4)cc3c2=O)c1` [Compound 34, 3-[[4-Oxo-6-(1H-pyrazol-4-yl)quinazolin-3-yl]methyl]benzenesulfonamide] had an IC50 of 0.03 µM.

`O=C(O)COc1cccc(Cn2cnc3ccc(-c4cn[nH]c4)cc3c2=O)c1` [Compound 27, 2-[3-[[4-Oxo-6-(1H-pyrazol-4-yl)quinazolin-3-yl]methyl]phenoxy]acetic acid]: the IC50 came out at 0.088 µM.

Turning to `O=c1c2cc(-c3cccnc3)ccc2ncn1Cc1cccc(Cl)c1` [Compound 49, 3-[(3-Chlorophenyl)methyl]-6-(3-pyridyl)quinazolin-4-one], the IC50 was > 50 µM.

Compound `COc1cccc(Cn2cnc3ccc(-c4c[nH]c5ncccc45)cc3c2=O)c1` [Compound 43, 3-[(3-Methoxyphenyl)methyl]-6-(1H-pyrrolo[2,3-b]pyridin-3-yl)quinazolin-4-one] gave a half-maximal inhibitory concentration (IC50) of 0.757 µM.

Turning to `O=C(NCc1c(F)cccc1F)c1cc(F)cc(Cn2cnc3ccc(-c4cn[nH]c4)cc3c2=O)c1` [Compound 72, N-(2,6-Difluorobenzyl)-3-fluoro-5-((4-oxo-6-(1H-pyrazol-4-yl)quinazolin-3(4H)-yl)methyl)benzamide], the 50% inhibitory concentration (IC50) was < 0.01 µM.

In the case of `O=C(NCc1ccc(F)cc1)c1cccc(Cn2cnc3ccc(-c4cn[nH]c4)c(F)c3c2=O)c1` [Compound 57, 3-[[5-Fluoro-4-oxo-6-(1H-pyrazol-4-yl)quinazolin-3-yl]methyl]-N-[(4-fluorophenyl)methyl]benzamide], the IC50 was < 0.01 µM.

In turn, `CC(=O)c1cccc(Cn2cnc3ccc(-c4cn[nH]c4)cc3c2=O)c1` [Compound 41, 3-[(3-Acetylphenyl)methyl]-6-(1H-pyrazol-4-yl)quinazolin-4-one] showed a half-maximal inhibitory concentration (IC50) of 0.065 µM.

As for `O=c1c2cc(-c3c[nH]nc3C(F)(F)F)ccc2ncn1Cc1c(F)cccc1F` [Compound 77, 3-[(2,6-Difluorophenyl)methyl]-6-[3-(trifluoromethyl)-1H-pyrazol-4-yl]quinazolin-4-one], the half-maximal inhibitory concentration (IC50) is > 20 µM.

Compound `O=c1c2cc(-c3cn[nH]c3)ccc2ncn1Cc1cccc(Cl)c1` [Compound 50, 3-[(3-Chlorophenyl)methyl]-6-(1H-pyrazol-4-yl)quinazolin-4-one] gave an IC50 of 0.075 µM.

In the case of `COc1cccc(Cn2cnc3ccc(-c4nn[nH]n4)cc3c2=O)c1` [Compound 48, 3-[(3-Methoxyphenyl)methyl]-6-(2H-tetrazol-5-yl)quinazolin-4-one], the IC50 is > 50 µM.

For the compound `CC(c1cccc(O)c1)n1cnc2ccc(-c3cn[nH]c3)cc2c1=O` (stereo not shown) [Compound 31, 3-[1-(3-Hydroxyphenyl)ethyl]-6-(1H-pyrazol-4-yl)quinazolin-4-one], the IC50 stood at 0.008 µM. This lies in the single-digit nanomolar range.

`COc1cccc(Cn2cnc3ccc(-c4ccnc5[nH]ccc45)cc3c2=O)c1` [Compound 53, 3-[(3-Methoxyphenyl)methyl]-6-(1H-pyrrolo[2,3-b]pyridin-4-yl)quinazolin-4-one] registered a half-maximal inhibitory concentration (IC50) of 2.45 µM.

With `CC(c1cccc(NS(C)(=O)=O)c1)n1cnc2ccc(-c3cn[nH]c3)cc2c1=O` (stereo not shown) [Compound 33, N-[3-[1-[4-Oxo-6-(1H-pyrazol-4-yl)quinazolin-3-yl]ethyl]phenyl]methanesulfonamide], half-maximal inhibition (IC50) required 0.033 µM.

For `O=C(NCc1ccc(F)cc1F)c1ccc(Cn2cnc3ccc(-c4cn[nH]c4)cc3c2=O)cc1` [Compound C2, N-[(2,4-Difluorophenyl)methyl]-4-[[4-oxo-6-(1H-pyrazol-4-yl)quinazolin-3-yl]methyl]benzamide], half-maximal inhibition (IC50) required 4.34 µM.

Turning to `CC(c1cccc(OCCS(C)(=O)=O)c1)n1cnc2ccc(-c3cn[nH]c3)cc2c1=O` (stereo not shown) [Compound 17, 3-(1-(3-(2-(Methylsulfonyl)ethoxy)phenyl)ethyl)-6-(1H-pyrazol-4-yl)quinazolin-4(3H)-one], half-maximal inhibition (IC50) was put at 1.31 µM. This IC50 lies about 3.3-fold lower than the previous one.

In turn, `[2H]C([2H])(Oc1cccc([C@@H](C)n2cnc3ccc(-c4cn[nH]c4)cc3c2=O)c1)C(=O)NC1CC1` [Compound 23, N-Cyclopropyl-2,2-dideuterio-2-[3-[(1R)-1-[4-oxo-6-(1H-pyrazol-4-yl)quinazolin-3-yl]ethyl]phenoxy]acetamide] yielded an IC50 of 0.035 µM.

Compound `CCC(c1cccc(OC)c1)n1cnc2ccc(-c3cn[nH]c3)cc2c1=O` (stereo not shown) [Compound 35, 3-[1-(3-Methoxyphenyl)propyl]-6-(1H-pyrazol-4-yl)quinazolin-4-one] had an IC50 of 0.122 µM.

As for `COc1cccc(C(CO)n2cnc3ccc(-c4cn[nH]c4)cc3c2=O)c1` (stereo not shown) [Compound 42, 3-[2-Hydroxy-1-(3-methoxyphenyl)ethyl]-6-(1H-pyrazol-4-yl)quinazolin-4-one], the 50% inhibitory concentration (IC50) amounted to 0.025 µM.
